Key:
[1] = molecular target: T1, Alpha-2C adrenergic receptor (Homo sapiens, UniProt P18825); assay type: functional
T1 sequence (P18825 whole entry): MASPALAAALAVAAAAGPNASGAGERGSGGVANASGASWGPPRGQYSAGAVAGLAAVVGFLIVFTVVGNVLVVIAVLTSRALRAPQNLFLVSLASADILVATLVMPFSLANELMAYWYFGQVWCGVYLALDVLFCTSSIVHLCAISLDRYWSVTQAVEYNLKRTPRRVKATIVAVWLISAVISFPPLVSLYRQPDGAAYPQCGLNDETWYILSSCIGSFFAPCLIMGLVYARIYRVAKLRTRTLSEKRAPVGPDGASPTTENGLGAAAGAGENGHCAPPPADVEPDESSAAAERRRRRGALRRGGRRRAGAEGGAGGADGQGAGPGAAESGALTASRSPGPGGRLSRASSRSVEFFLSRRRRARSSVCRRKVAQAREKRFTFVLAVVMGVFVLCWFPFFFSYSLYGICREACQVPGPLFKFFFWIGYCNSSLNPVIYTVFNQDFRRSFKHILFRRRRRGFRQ

[2] = molecular target: T2, Type-1 angiotensin II receptor (Homo sapiens, UniProt P30556)
T2 sequence (P30556 whole entry): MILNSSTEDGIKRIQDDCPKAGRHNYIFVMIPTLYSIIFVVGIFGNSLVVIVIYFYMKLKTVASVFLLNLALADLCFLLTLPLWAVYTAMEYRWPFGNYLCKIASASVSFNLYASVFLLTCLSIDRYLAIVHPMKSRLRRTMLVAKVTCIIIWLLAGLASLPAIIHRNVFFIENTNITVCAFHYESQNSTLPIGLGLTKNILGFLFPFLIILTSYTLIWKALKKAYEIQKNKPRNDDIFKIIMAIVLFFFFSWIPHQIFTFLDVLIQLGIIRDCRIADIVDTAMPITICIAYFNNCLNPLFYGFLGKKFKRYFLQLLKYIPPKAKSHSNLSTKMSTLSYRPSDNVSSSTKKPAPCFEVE

Vasopressin V2 receptor = Vasopressin V2 receptor (Homo sapiens, UniProt P30518)
[3] = molecular target: Muscarinic acetylcholine receptor M3 (Homo sapiens, UniProt P20309)
Histamine H2 receptor = Histamine H2 receptor (Homo sapiens, UniProt P25021); assay type: functional, cell-based
[4] = molecular target: 5-hydroxytryptamine receptor 2A (Homo sapiens, UniProt P28223); assay type: functional, cell-based
[5] = molecular target: 5-hydroxytryptamine receptor 2B (Homo sapiens, UniProt P41595); assay type: functional, cell-based
Melanocortin receptor 3 = Melanocortin receptor 3 (Homo sapiens, UniProt P41968)
[6] = molecular target: T3, Neuropeptide Y receptor type 1 (Homo sapiens, UniProt P25929)
T3 sequence (P25929 whole entry): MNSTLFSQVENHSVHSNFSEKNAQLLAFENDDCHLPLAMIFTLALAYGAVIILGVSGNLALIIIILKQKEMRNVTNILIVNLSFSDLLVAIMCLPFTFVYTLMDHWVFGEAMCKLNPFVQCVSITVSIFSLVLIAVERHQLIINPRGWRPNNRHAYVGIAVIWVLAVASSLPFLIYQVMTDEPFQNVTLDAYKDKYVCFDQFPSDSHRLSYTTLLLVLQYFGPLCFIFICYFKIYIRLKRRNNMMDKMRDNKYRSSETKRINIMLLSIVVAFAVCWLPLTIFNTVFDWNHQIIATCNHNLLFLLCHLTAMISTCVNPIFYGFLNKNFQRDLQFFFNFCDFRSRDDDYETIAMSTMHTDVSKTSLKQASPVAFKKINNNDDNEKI

Glucocorticoid receptor = molecular target: T4, Glucocorticoid receptor (Homo sapiens, UniProt P04150)
T4 sequence (P04150 whole entry): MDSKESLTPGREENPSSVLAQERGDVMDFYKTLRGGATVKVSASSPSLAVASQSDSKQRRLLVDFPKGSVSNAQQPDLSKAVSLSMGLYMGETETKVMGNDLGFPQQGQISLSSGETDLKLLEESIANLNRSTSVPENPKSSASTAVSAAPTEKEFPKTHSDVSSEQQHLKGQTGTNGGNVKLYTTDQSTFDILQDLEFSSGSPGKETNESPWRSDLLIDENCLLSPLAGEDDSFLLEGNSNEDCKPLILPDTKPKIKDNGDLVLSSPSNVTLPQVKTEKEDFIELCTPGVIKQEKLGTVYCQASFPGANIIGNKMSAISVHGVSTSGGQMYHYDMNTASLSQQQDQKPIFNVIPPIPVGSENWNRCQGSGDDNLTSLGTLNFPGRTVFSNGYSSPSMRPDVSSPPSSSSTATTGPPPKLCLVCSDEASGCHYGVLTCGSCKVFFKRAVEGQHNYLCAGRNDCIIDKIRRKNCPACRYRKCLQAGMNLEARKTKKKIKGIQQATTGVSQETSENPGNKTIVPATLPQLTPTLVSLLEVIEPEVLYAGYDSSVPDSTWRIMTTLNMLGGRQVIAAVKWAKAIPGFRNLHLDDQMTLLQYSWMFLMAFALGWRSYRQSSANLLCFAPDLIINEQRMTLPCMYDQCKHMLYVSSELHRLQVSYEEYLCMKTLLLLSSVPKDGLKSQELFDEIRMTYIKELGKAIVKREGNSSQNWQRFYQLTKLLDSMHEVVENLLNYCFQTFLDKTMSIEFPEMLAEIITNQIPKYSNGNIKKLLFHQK

[7] = molecular target: Sodium-dependent dopamine transporter (Homo sapiens, UniProt Q01959)
[8] = molecular target: cGMP-inhibited 3',5'-cyclic phosphodiesterase 3A (Homo sapiens, UniProt Q14432); assay type: functional
[9] = molecular target: T5, Alpha-1A adrenergic receptor (Homo sapiens, UniProt P35348); assay type: functional, cell-based
T5 sequence (P35348 whole entry): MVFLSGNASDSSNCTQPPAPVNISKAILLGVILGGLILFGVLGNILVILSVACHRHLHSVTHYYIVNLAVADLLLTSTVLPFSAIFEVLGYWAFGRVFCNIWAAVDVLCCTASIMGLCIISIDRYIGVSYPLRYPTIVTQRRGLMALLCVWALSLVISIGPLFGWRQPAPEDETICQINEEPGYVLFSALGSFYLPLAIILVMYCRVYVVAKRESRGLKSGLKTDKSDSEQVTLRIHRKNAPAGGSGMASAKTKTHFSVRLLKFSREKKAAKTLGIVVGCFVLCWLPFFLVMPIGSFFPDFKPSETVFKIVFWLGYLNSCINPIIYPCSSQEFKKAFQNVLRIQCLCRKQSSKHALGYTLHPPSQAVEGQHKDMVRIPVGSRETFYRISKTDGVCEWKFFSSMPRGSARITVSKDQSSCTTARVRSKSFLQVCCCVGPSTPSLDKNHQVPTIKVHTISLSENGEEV
Note: assay procedure not described here.

cGMP-inhibited 3',5'-cyclic phosphodiesterase 3A, sequence (Q14432 whole entry): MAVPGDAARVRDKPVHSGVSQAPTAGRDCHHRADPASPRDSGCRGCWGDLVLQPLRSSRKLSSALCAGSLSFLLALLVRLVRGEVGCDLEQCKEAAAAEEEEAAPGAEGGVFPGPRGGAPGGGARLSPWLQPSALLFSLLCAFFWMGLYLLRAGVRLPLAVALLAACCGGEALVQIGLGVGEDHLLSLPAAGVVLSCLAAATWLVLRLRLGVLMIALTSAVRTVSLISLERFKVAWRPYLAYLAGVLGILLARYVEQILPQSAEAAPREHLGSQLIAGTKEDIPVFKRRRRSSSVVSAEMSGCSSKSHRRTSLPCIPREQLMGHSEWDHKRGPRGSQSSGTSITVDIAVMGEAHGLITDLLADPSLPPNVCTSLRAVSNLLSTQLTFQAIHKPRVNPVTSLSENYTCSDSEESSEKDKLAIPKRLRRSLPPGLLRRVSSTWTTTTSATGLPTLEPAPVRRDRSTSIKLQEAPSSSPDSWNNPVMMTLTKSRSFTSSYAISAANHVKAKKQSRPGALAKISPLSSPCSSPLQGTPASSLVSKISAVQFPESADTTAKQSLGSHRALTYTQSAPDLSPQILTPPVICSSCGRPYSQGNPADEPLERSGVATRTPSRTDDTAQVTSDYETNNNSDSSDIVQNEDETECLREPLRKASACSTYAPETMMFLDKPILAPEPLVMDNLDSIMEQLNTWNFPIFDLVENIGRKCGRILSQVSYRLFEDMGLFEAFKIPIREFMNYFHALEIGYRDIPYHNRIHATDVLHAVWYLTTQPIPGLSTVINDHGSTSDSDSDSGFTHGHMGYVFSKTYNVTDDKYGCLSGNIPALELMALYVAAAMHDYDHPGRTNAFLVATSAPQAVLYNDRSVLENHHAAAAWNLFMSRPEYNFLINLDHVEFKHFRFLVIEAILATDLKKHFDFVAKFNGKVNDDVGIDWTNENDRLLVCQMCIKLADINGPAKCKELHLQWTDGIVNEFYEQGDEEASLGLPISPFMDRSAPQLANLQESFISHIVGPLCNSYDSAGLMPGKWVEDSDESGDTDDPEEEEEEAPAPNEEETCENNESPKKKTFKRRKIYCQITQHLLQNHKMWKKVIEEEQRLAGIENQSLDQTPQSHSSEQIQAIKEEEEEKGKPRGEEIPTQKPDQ
Histamine H2 receptor, sequence (P25021 whole entry): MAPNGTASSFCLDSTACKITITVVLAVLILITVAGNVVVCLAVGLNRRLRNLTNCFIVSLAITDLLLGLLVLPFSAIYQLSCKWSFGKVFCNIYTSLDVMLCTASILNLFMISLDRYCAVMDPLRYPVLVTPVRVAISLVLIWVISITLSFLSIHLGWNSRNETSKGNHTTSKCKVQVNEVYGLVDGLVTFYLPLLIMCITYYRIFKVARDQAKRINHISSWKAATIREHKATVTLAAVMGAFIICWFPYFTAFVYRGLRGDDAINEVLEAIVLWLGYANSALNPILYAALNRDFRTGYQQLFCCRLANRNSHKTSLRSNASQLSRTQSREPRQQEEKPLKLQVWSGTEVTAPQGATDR
Muscarinic acetylcholine receptor M3, sequence (P20309 whole entry): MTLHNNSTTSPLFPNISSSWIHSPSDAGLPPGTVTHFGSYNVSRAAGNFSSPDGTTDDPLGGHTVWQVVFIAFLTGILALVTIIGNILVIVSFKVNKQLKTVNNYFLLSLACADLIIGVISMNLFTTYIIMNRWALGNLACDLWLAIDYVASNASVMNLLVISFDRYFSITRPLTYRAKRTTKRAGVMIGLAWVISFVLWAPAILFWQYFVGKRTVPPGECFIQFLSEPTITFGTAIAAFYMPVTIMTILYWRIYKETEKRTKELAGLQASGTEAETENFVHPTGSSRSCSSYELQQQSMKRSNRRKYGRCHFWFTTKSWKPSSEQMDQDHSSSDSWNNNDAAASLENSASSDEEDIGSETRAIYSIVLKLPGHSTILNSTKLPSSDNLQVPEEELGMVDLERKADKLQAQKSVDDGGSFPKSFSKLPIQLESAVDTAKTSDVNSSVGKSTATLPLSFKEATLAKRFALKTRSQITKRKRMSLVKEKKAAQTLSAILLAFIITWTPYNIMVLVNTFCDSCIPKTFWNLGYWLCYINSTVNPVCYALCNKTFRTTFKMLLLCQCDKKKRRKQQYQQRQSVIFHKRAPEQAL
Vasopressin V2 receptor, sequence (P30518 whole entry): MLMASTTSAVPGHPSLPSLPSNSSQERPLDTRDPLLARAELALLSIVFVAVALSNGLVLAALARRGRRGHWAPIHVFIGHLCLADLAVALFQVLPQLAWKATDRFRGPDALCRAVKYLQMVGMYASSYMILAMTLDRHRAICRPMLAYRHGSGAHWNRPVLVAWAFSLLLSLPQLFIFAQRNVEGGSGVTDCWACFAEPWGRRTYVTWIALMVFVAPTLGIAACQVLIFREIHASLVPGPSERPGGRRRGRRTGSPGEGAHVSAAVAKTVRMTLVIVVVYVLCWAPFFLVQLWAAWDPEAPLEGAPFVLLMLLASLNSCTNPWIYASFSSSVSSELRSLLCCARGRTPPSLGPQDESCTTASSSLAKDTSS
5-hydroxytryptamine receptor 2B, sequence (P41595 whole entry): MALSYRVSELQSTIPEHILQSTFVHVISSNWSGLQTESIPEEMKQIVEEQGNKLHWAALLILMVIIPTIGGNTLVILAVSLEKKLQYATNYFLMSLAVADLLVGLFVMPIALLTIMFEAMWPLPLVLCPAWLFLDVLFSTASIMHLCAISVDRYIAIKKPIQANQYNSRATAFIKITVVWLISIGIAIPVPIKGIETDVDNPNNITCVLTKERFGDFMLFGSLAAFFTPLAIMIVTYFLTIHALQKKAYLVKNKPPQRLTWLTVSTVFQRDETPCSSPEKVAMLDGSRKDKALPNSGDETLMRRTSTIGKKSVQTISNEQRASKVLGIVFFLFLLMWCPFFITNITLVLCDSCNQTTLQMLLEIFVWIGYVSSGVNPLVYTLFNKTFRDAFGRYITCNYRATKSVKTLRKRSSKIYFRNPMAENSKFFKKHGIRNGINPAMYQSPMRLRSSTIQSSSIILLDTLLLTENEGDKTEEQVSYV
Sodium-dependent dopamine transporter, sequence (Q01959 whole entry): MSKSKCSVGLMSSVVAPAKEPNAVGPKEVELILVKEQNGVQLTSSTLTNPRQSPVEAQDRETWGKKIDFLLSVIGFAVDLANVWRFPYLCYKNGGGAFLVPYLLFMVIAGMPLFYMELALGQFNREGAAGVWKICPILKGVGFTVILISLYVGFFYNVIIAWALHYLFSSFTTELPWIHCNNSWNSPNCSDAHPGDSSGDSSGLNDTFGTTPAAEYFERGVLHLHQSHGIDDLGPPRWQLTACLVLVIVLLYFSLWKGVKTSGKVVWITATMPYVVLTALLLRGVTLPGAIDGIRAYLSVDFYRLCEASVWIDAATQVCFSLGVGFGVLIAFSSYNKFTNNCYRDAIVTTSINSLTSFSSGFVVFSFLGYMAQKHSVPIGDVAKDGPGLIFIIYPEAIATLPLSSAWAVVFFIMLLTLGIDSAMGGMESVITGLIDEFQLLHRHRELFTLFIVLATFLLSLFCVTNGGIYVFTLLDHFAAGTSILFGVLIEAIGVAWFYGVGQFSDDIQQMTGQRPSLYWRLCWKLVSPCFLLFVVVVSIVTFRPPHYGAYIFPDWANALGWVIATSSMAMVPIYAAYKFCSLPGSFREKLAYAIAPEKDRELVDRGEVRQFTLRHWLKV
5-hydroxytryptamine receptor 2A, sequence (P28223 whole entry): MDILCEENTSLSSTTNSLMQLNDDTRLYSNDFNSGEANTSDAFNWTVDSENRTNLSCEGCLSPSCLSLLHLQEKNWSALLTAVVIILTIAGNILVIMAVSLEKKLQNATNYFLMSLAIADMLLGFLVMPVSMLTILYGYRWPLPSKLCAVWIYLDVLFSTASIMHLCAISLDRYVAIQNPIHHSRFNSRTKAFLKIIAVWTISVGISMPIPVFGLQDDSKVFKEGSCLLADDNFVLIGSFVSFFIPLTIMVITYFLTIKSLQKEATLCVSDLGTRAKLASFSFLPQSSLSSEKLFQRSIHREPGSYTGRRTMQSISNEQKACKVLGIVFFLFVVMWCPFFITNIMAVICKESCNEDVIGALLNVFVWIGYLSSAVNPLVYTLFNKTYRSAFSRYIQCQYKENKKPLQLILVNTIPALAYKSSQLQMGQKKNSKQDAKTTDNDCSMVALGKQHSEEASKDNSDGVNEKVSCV
Melanocortin receptor 3, sequence (P41968 whole entry): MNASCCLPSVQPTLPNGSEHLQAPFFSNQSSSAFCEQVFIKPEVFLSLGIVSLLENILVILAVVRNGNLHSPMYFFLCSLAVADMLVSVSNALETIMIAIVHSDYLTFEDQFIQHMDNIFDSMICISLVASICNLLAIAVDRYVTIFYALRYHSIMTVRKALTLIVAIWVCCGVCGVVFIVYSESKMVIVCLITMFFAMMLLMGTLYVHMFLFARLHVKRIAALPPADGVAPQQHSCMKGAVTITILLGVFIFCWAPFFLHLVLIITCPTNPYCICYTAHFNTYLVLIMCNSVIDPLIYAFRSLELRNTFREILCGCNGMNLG

Compound	AC50 [1]	AC50 [2]	AC50 (Vasopressin V2 receptor)	AC50 [3]	AC50 (Histamine H2 receptor)	AC50 [4]	AC50 [5]	AC50 (Melanocortin receptor 3)	AC50 [6]	AC50 (Glucocorticoid receptor)	AC50 [7]	AC50 [8]	AC50 [9]
CCCN(CC)C(CC)C(=O)Nc1c(C)cccc1C (centres undefined) [ETIDOCAINE]	> 30 µM	> 30 µM	> 30 µM	> 30 µM	> 30 µM	> 30 µM	> 30 µM	> 30 µM	> 30 µM	> 30 µM	> 30 µM	> 30 µM	> 30 µM
Nc1nc(F)nc2c1ncn2[C@@H]1O[C@H](COP(=O)(O)O)[C@@H](O)[C@@H]1O [FLUDARABINE PHOSPHATE]	> 30 µM	> 30 µM	> 30 µM	> 30 µM	> 30 µM	> 30 µM	> 30 µM	> 30 µM	> 30 µM	> 30 µM	> 30 µM	> 30 µM	> 30 µM
O=C(O)c1ccccc1Nc1cccc(C(F)(F)F)c1 [FLUFENAMIC ACID]	> 10 µM	> 30 µM	> 30 µM	0.92 µM	> 10 µM	> 30 µM	> 30 µM	> 30 µM	> 30 µM	> 30 µM	> 30 µM	> 30 µM	> 30 µM
O=C(O)c1ccccc1OP(=O)(O)O [FOSFOSAL]	> 30 µM	> 30 µM	> 30 µM	> 30 µM	> 30 µM	> 30 µM	> 30 µM	> 30 µM	> 30 µM	> 30 µM	> 30 µM	9.8 µM	> 30 µM
C#C[C@]1(O)CC[C@H]2[C@@H]3CCC4=CC(=O)CCC4=C3C=C[C@@]21CC [GESTRINONE]	> 30 µM	> 30 µM	> 30 µM	> 30 µM	> 30 µM	> 30 µM	> 30 µM	> 30 µM	> 30 µM	0.01 µM	25 µM	2.9 µM	> 30 µM
CCCCCCOC(=O)CCC(=O)CN [HEXAMINOLEVULINATE]	> 30 µM	> 30 µM	> 30 µM	> 30 µM	> 30 µM	> 30 µM	> 30 µM	> 30 µM	> 30 µM	> 30 µM	> 30 µM	> 30 µM	> 30 µM
CCCC[C@H](C)C[C@H](O)/C=C/[C@H]1[C@H](O)CC(=O)[C@@H]1CCCC/C=C/C(=O)O [LIMAPROST]	> 30 µM	> 30 µM	> 30 µM	> 30 µM	> 30 µM	> 30 µM	> 30 µM	> 30 µM	> 30 µM	> 30 µM	> 30 µM	> 30 µM	> 30 µM
Cc1ccc(NC(=O)C2(c3ccc4c(c3)OC(F)(F)O4)CC2)nc1-c1cccc(C(=O)O)c1 [LUMACAFTOR]	> 30 µM	> 30 µM	> 30 µM	> 30 µM	> 30 µM	> 30 µM	> 30 µM	> 30 µM	> 30 µM	> 30 µM	> 30 µM	> 30 µM	25 µM
CC(C)OC(=O)C(C(=O)OC(C)C)=C1SC=CS1 [MALOTILATE]	> 30 µM	> 30 µM	> 30 µM	> 30 µM	> 30 µM	> 30 µM	> 30 µM	> 30 µM	> 30 µM	> 30 µM	> 30 µM	> 30 µM	28 µM
CC(=O)Nc1c(I)c(C(=O)N[C@H]2C(O)O[C@H](CO)[C@@H](O)[C@@H]2O)c(I)c(N(C)C(C)=O)c1I (some centres undefined) [METRIZAMIDE]	> 10 µM	> 10 µM	> 10 µM	> 30 µM	> 10 µM	> 10 µM	> 10 µM	> 10 µM	> 10 µM	> 10 µM	> 10 µM	> 30 µM	> 30 µM
CC(=O)c1ccc2c(c1)N(CCCN1CCC(CCO)CC1)c1ccccc1S2 [PIPERACETAZINE]	0.37 µM	> 30 µM	> 30 µM	9.5 µM	> 30 µM	0.3 µM	> 30 µM	> 30 µM	> 30 µM	> 30 µM	7.6 µM	> 10 µM	0.14 µM
NC(=O)CCC/N=C(\c1ccc(Cl)cc1)c1cc(F)ccc1O [PROGABIDE]	> 10 µM	> 10 µM	> 10 µM	> 30 µM	> 10 µM	> 10 µM	> 10 µM	> 10 µM	> 10 µM	> 10 µM	> 10 µM	> 30 µM	> 30 µM
CCN(CC)CC(=O)Oc1ccc(NC(C)=O)cc1 [PROPACETAMOL]	> 30 µM	> 30 µM	> 30 µM	> 30 µM	> 30 µM	> 30 µM	> 30 µM	> 30 µM	> 30 µM	> 30 µM	> 30 µM	> 30 µM	> 30 µM

— ChEMBL document CHEMBL5291721, “A preclinical secondary pharmacology resource illuminates target-adverse drug reaction associations of marketed drugs” (Nat Commun, 2023)
